# Laboratory results as given in the supplement of paper PMC10307832.
# Key:
# Experiment in all cases: relative viability (nuclei count vs DMSO), 5 days (fraction); higher = more cells survive
# NCI-H727 = tested on: NCI-H727
# Summary of the method: (§1)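 Relative viability is defined as nuclei in treated wells over nuclei in vehicle wells. Duplicate plates were run and medians reported. Lung cancer cell lines in 1536-well plates were dosed by pin tool one day after seeding, with one drug or with a fixed anchor-drug dose plus five library-drug doses (not always all listed) in √10 steps, and nuclei were counted after 5 days.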
# PC-14 = tested on: PC-14
# Summary of the method: as §1
# NCI-H1915 = tested on: NCI-H1915
# Summary of the method: as §1
# HARA = tested on: HARA
# Summary of the method: as §1
# NCI-H1734 = tested on: NCI-H1734
# Summary of the method: as §1
# H3255 = tested on: H3255
# Summary of the method: as §1
# ABC-1 = tested on: ABC-1
# Summary of the method: as §1
# HCC-15 = tested on: HCC-15
# Summary of the method: as §1
# LU99A = tested on: LU99A
# Summary of the method: as §1
# NCI-H1437 = tested on: NCI-H1437
# Summary of the method: as §1
# NCI-H460 = tested on: NCI-H460
# Summary of the method: as §1
# NCI-H1666 = tested on: NCI-H1666
# Summary of the method: as §1
# LC-2-ad = tested on: LC-2-ad
# Summary of the method: as §1
# NCI-H1944 = tested on: NCI-H1944
# Summary of the method: as §1
# SW 900 = tested on: SW 900
# Summary of the method: as §1
# NCI-H1648 = tested on: NCI-H1648
# Summary of the method: as §1
# RERF-LC-KJ = tested on: RERF-LC-KJ
# Summary of the method: as §1
# NCI-H650 = tested on: NCI-H650
# Summary of the method: as §1
# NCI-H2347 = tested on: NCI-H2347
# Summary of the method: as §1
# HCC-366 = tested on: HCC-366
# Summary of the method: as §1
# CAL-12T = tested on: CAL-12T
# Summary of the method: as §1
# NCI-H838 = tested on: NCI-H838
# Summary of the method: as §1
structure (smiles),measurement,setting,value
C=C1C(=O)O[C@@H](CCCCCCCC)[C@@H]1C(=O)O [C-75] + NC(=O)Nc1cc(-c2cccc(F)c2)sc1C(=O)N[C@H]1CCCNC1 [AZD7762] (partner 0.2 µM),relative viability,NCI-H727; first compound 0.08 µM,0.694
same,relative viability,NCI-H727; first compound 0.253 µM,0.906
same,relative viability,NCI-H727; first compound 0.8 µM,0.4
same,relative viability,NCI-H727; first compound 2.53 µM,0.587
same,relative viability,NCI-H727; first compound 8 µM,0.388
same,relative viability,PC-14; first compound 0.08 µM,0.358
same,relative viability,PC-14; first compound 0.8 µM,0.243
same,relative viability,PC-14; first compound 2.53 µM,0.328
same,relative viability,PC-14; first compound 8 µM,0.319
same,relative viability,NCI-H1915; first compound 0.08 µM,0.716
same,relative viability,NCI-H1915; first compound 0.253 µM,0.683
same,relative viability,NCI-H1915; first compound 0.8 µM,0.739
same,relative viability,NCI-H1915; first compound 2.53 µM,0.621
same,relative viability,NCI-H1915; first compound 8 µM,0.79
same,relative viability,HARA; first compound 0.08 µM,0.568
same,relative viability,HARA; first compound 0.253 µM,0.469
same,relative viability,HARA; first compound 0.8 µM,0.213
same,relative viability,HARA; first compound 2.53 µM,0.447
same,relative viability,HARA; first compound 8 µM,0.722
same,relative viability,NCI-H1734; first compound 0.08 µM,0.562
same,relative viability,NCI-H1734; first compound 0.253 µM,0.587
same,relative viability,NCI-H1734; first compound 0.8 µM,0.488
same,relative viability,NCI-H1734; first compound 2.53 µM,0.278
same,relative viability,NCI-H1734; first compound 8 µM,0.664
same,relative viability,H3255; first compound 0.08 µM,0.847
same,relative viability,H3255; first compound 0.253 µM,0.893
same,relative viability,H3255; first compound 0.8 µM,0.774
same,relative viability,H3255; first compound 2.53 µM,0.885
same,relative viability,H3255; first compound 8 µM,0.865
same,relative viability,ABC-1; first compound 0.08 µM,0.736
same,relative viability,ABC-1; first compound 0.253 µM,0.461
same,relative viability,ABC-1; first compound 0.8 µM,0.685
same,relative viability,ABC-1; first compound 2.53 µM,0.672
same,relative viability,ABC-1; first compound 8 µM,0.775
same,relative viability,HCC-15; first compound 0.08 µM,1.37
same,relative viability,HCC-15; first compound 0.253 µM,1.39
same,relative viability,HCC-15; first compound 0.8 µM,1.2
same,relative viability,HCC-15; first compound 2.53 µM,0.78
same,relative viability,HCC-15; first compound 8 µM,1.22
same,relative viability,LU99A; first compound 0.08 µM,0.36
same,relative viability,LU99A; first compound 0.253 µM,0.529
same,relative viability,LU99A; first compound 0.8 µM,0.33
same,relative viability,LU99A; first compound 2.53 µM,0.284
same,relative viability,LU99A; first compound 8 µM,0.401
same,relative viability,NCI-H1437; first compound 0.08 µM,1.11
same,relative viability,NCI-H1437; first compound 0.253 µM,1.09
same,relative viability,NCI-H1437; first compound 0.8 µM,1.09
same,relative viability,NCI-H1437; first compound 2.53 µM,1.09
same,relative viability,NCI-H1437; first compound 8 µM,1.15
same,relative viability,NCI-H460; first compound 0.08 µM,0.685
same,relative viability,NCI-H460; first compound 0.253 µM,0.805
same,relative viability,NCI-H460; first compound 0.8 µM,0.595
same,relative viability,NCI-H460; first compound 2.53 µM,0.555
same,relative viability,NCI-H460; first compound 8 µM,0.706
same,relative viability,NCI-H1666; first compound 0.08 µM,0.801
same,relative viability,NCI-H1666; first compound 0.253 µM,0.955
same,relative viability,NCI-H1666; first compound 0.8 µM,0.725
same,relative viability,NCI-H1666; first compound 2.53 µM,0.657
same,relative viability,NCI-H1666; first compound 8 µM,0.708
same,relative viability,LC-2-ad; first compound 0.08 µM,0.833
same,relative viability,LC-2-ad; first compound 0.253 µM,0.813
same,relative viability,LC-2-ad; first compound 0.8 µM,0.819
same,relative viability,LC-2-ad; first compound 2.53 µM,0.728
same,relative viability,LC-2-ad; first compound 8 µM,0.853
same,relative viability,NCI-H1944; first compound 0.08 µM,0.566
same,relative viability,NCI-H1944; first compound 0.253 µM,0.648
same,relative viability,NCI-H1944; first compound 0.8 µM,0.381
same,relative viability,NCI-H1944; first compound 2.53 µM,0.621
same,relative viability,NCI-H1944; first compound 8 µM,0.517
same,relative viability,SW 900; first compound 0.08 µM,0.663
same,relative viability,SW 900; first compound 0.253 µM,0.69
same,relative viability,SW 900; first compound 0.8 µM,0.623
same,relative viability,SW 900; first compound 2.53 µM,0.576
same,relative viability,SW 900; first compound 8 µM,0.611
same,relative viability,NCI-H1648; first compound 0.08 µM,0.75
same,relative viability,NCI-H1648; first compound 0.253 µM,1.2
same,relative viability,NCI-H1648; first compound 0.8 µM,0.712
same,relative viability,NCI-H1648; first compound 8 µM,0.622
same,relative viability,RERF-LC-KJ; first compound 0.08 µM,0.946
same,relative viability,RERF-LC-KJ; first compound 0.253 µM,1.16
same,relative viability,RERF-LC-KJ; first compound 0.8 µM,0.824
same,relative viability,RERF-LC-KJ; first compound 2.53 µM,0.925
same,relative viability,RERF-LC-KJ; first compound 8 µM,1.09
same,relative viability,NCI-H650; first compound 0.08 µM,0.935
same,relative viability,NCI-H650; first compound 0.253 µM,0.796
same,relative viability,NCI-H650; first compound 0.8 µM,1.01
same,relative viability,NCI-H650; first compound 2.53 µM,0.81
same,relative viability,NCI-H650; first compound 8 µM,1.02
same,relative viability,NCI-H2347; first compound 0.08 µM,0.725
same,relative viability,NCI-H2347; first compound 0.253 µM,1
same,relative viability,NCI-H2347; first compound 0.8 µM,0.715
same,relative viability,NCI-H2347; first compound 2.53 µM,0.705
same,relative viability,NCI-H2347; first compound 8 µM,0.665
same,relative viability,HCC-366; first compound 0.08 µM,0.271
same,relative viability,HCC-366; first compound 0.253 µM,0.306
same,relative viability,HCC-366; first compound 0.8 µM,0.227
same,relative viability,HCC-366; first compound 2.53 µM,0.152
same,relative viability,HCC-366; first compound 8 µM,0.52
same,relative viability,CAL-12T; first compound 0.08 µM,0.683
same,relative viability,CAL-12T; first compound 0.253 µM,0.713
same,relative viability,CAL-12T; first compound 0.8 µM,0.586
same,relative viability,CAL-12T; first compound 2.53 µM,0.548
same,relative viability,CAL-12T; first compound 8 µM,0.64
same,relative viability,NCI-H838; first compound 0.08 µM,0.89
same,relative viability,NCI-H838; first compound 0.253 µM,0.752
same,relative viability,NCI-H838; first compound 0.8 µM,0.943
same,relative viability,NCI-H838; first compound 2.53 µM,0.865
same,relative viability,NCI-H838; first compound 8 µM,0.891
